According to patent US6284269A, “Pharmaceutical compositions of meloxicam with improved solubility and bioavailability” (Hexal AG, priority 1997, dated 2001):
“And” between values parts separate entries of the source, which are not always exact repeats. Equal entries are not always repeated.

Experiments:
[1] = In vitro dissolution of cyclodextrin based meloxicam compositions under non-sink conditions (standard method); type: physicochemical
Procedure: The following standard method was used for the determination of the solution rate of the drug compositions: In vitro dissolution properties of the cyclodextrin based meloxicam compositions were studied under non-sink conditions in two different buffer systems, pH 1.3 and 7.6, respectively and in deionised water (pH=6.6) at 37° C.
(§1) The stirring rate was 160 r.p.m. […] Sampling time intervals were 5, 10, 15, 30, 45 and 60 minutes.

[2] = In vitro rate of dissolution of meloxicam composition at pH 1.2 (table 9); type: physicochemical; conditions: 37° C., 60 min
Procedure: The following standard method was used for the determination of the solution rate of the drug compositions: In vitro dissolution properties of the cyclodextrin based […], respectively and in deionised water (pH=6.6) at 37° C.
as §1

Cc1cnc(NC(=O)C2=C(O)c3ccccc3S(=O)(=O)N2C)s1 [free meloxicam, meloxicam]
Dissolved meloxicam in solution ([1]; deionised water (pH = 6.6), 37° C., 5 min): 23 µg/mL
Dissolved meloxicam in solution ([1]; deionised water (pH = 6.6), 37° C., 10 min): 148 µg/mL
Dissolved meloxicam in solution ([1]; deionised water (pH = 6.6), 37° C., 15 min): 232 µg/mL
Dissolved meloxicam in solution ([1]; deionised water (pH = 6.6), 37° C., 30 min): 390 µg/mL
Dissolved meloxicam in solution ([1]; deionised water (pH = 6.6), 37° C., 45 min): 415 µg/mL
Dissolved meloxicam in solution ([1]; deionised water (pH = 6.6), 37° C., 60 min): 475 µg/mL
Dissolved meloxicam in solution ([1]; pH 1.3, 37° C., 5 min (tables 4, 11, 13)): 0.4 µg/mL and 0.30 µg/mL
Dissolved meloxicam in solution ([1]; pH 1.3, 37° C., 5 min, free meloxicam 130 mg, composition 1300 mg (table 7)): 0.45 µg/mL
Dissolved meloxicam in solution ([1]; pH 1.3, 37° C., 5 min, free meloxicam 130 mg, composition 1500 mg (tables 5, 6)): 0.45 µg/mL
Dissolved meloxicam in solution ([1]; pH 1.3, 37° C., 10 min (tables 4, 11, 13)): 0.6 µg/mL and 0.38 µg/mL
Dissolved meloxicam in solution ([1]; pH 1.3, 37° C., 10 min, free meloxicam 130 mg, composition 1300 mg (table 7)): 0.62 µg/mL
Dissolved meloxicam in solution ([1]; pH 1.3, 37° C., 10 min, free meloxicam 130 mg, composition 1500 mg (tables 5, 6)): 0.62 µg/mL
Dissolved meloxicam in solution ([1]; pH 1.3, 37° C., 15 min (tables 4, 11, 13)): 0.7 µg/mL and 0.44 µg/mL
Dissolved meloxicam in solution ([1]; pH 1.3, 37° C., 15 min, free meloxicam 130 mg, composition 1300 mg (table 7)): 0.67 µg/mL
Dissolved meloxicam in solution ([1]; pH 1.3, 37° C., 15 min, free meloxicam 130 mg, composition 1500 mg (tables 5, 6)): 0.67 µg/mL
Dissolved meloxicam in solution ([1]; pH 1.3, 37° C., 30 min (tables 4, 11, 13)): 0.7 µg/mL and 0.56 µg/mL
Dissolved meloxicam in solution ([1]; pH 1.3, 37° C., 30 min, free meloxicam 130 mg, composition 1300 mg (table 7)): 0.74 µg/mL
Dissolved meloxicam in solution ([1]; pH 1.3, 37° C., 30 min, free meloxicam 130 mg, composition 1500 mg (tables 5, 6)): 0.74 µg/mL
Dissolved meloxicam in solution ([1]; pH 1.3, 37° C., 45 min (tables 4, 11, 13)): 0.7 µg/mL and 0.59 µg/mL
Dissolved meloxicam in solution ([1]; pH 1.3, 37° C., 45 min, free meloxicam 130 mg, composition 1300 mg (table 7)): 0.73 µg/mL
Dissolved meloxicam in solution ([1]; pH 1.3, 37° C., 45 min, free meloxicam 130 mg, composition 1500 mg (tables 5, 6)): 0.73 µg/mL
Dissolved meloxicam in solution ([1]; pH 1.3, 37° C., 60 min (tables 4, 11, 13)): 0.6 µg/mL and 0.65 µg/mL
Dissolved meloxicam in solution ([1]; pH 1.3, 37° C., 60 min, free meloxicam 130 mg, composition 1300 mg (table 7)): 0.67 µg/mL
Dissolved meloxicam in solution ([1]; pH 1.3, 37° C., 60 min, free meloxicam 130 mg, composition 1500 mg (tables 5, 6)): 0.67 µg/mL
Dissolved meloxicam in solution ([1]; pH 7.6, 37° C., 5 min (tables 4, 11)): 38 µg/mL
Dissolved meloxicam in solution ([1]; pH 7.6, 37° C., 5 min, free meloxicam 130 mg, composition 1300 mg (table 7)): 38 µg/mL
Dissolved meloxicam in solution ([1]; pH 7.6, 37° C., 5 min, free meloxicam 130 mg, composition 1500 mg (tables 5, 6)): 38 µg/mL
Dissolved meloxicam in solution ([1]; pH 7.6, 37° C., 10 min (tables 4, 11)): 188 µg/mL and 218 µg/mL
Dissolved meloxicam in solution ([1]; pH 7.6, 37° C., 10 min, free meloxicam 130 mg, composition 1300 mg (table 7)): 218 µg/mL
Dissolved meloxicam in solution ([1]; pH 7.6, 37° C., 10 min, free meloxicam 130 mg, composition 1500 mg (tables 5, 6)): 218 µg/mL
Dissolved meloxicam in solution ([1]; pH 7.6, 37° C., 15 min (tables 4, 11)): 320 µg/mL
Dissolved meloxicam in solution ([1]; pH 7.6, 37° C., 15 min, free meloxicam 130 mg, composition 1300 mg (table 7)): 320 µg/mL
Dissolved meloxicam in solution ([1]; pH 7.6, 37° C., 15 min, free meloxicam 130 mg, composition 1500 mg (tables 5, 6)): 320 µg/mL
Dissolved meloxicam in solution ([1]; pH 7.6, 37° C., 30 min (tables 4, 11)): 390 µg/mL
Dissolved meloxicam in solution ([1]; pH 7.6, 37° C., 30 min, free meloxicam 130 mg, composition 1300 mg (table 7)): 390 µg/mL
Dissolved meloxicam in solution ([1]; pH 7.6, 37° C., 30 min, free meloxicam 130 mg, composition 1500 mg (tables 5, 6)): 390 µg/mL
Dissolved meloxicam in solution ([1]; pH 7.6, 37° C., 45 min (tables 4, 11)): 485 µg/mL
Dissolved meloxicam in solution ([1]; pH 7.6, 37° C., 45 min, free meloxicam 130 mg, composition 1300 mg (table 7)): 485 µg/mL
Dissolved meloxicam in solution ([1]; pH 7.6, 37° C., 45 min, free meloxicam 130 mg, composition 1500 mg (tables 5, 6)): 485 µg/mL
Dissolved meloxicam in solution ([1]; pH 7.6, 37° C., 60 min (tables 4, 11)): 550 µg/mL
Dissolved meloxicam in solution ([1]; pH 7.6, 37° C., 60 min, free meloxicam 130 mg, composition 1300 mg (table 7)): 550 µg/mL
Dissolved meloxicam in solution ([1]; pH 7.6, 37° C., 60 min, free meloxicam 130 mg, composition 1500 mg (tables 5, 6)): 550 µg/mL
meloxicam (dissolved) [2]: 0.8 µg/mL
